Assay results taken from ChEMBL document CHEMBL5614418, “Discovery of novel dihydropyrrolidone-thiadiazole compound crosstalk between the YycG/F two-component regulatory pathway and cell membrane homeostasis to combat methicillin-resistant Staphylococcus aureus” (Eur J Med Chem, 2024).
In brackets after ≈: the same amount, converted by molar mass. Activity calls are given as the source filed them. No cut-off for these calls is given here.

Tests used:
Staphylococcus aureus [1] = assay: Antibacterial activity against methicillin sensitive Staphylococcus aureus SA113 assessed as fold increase in MIC in presence of phosphatidyl ethanolamine by chequerboard microdilution assay; format: functional
[2] = Cytotoxicity against human LX2 cells incubated for 24 hrs by CCK8 assay; format: toxicity, cell-based; conditions: LX-2 cells
Staphylococcus aureus [3] = assay: Antibacterial activity against methicillin sensitive Staphylococcus aureus SA113 assessed as fold increase in MIC in presence of cardiolipin by chequerboard microdilution assay; format: functional
[4] = system: Staphylococcus epidermidis; assay: Synergistic antibacterial activity against Staphylococcus epidermidis SE1457 assessed as fractional inhibitory concentration index in presence of daptomycin; format: functional
[5] = Hemolytic activity against human erythrocytes measured after 1 hr; format: toxicity, cell-based, Erythrocyte
Staphylococcus aureus [6] = assay: Synergistic antibacterial activity against methicillin resistant Staphylococcus aureus USA300 assessed as fractional inhibitory concentration index in presence of daptomycin; format: functional
Staphylococcus aureus [7] = assay: Antibacterial activity against methicillin resistant Staphylococcus aureus USA300 infected in BALB/c mouse pneumonia model assessed as log reduction in lung bacterial count at 20 mg/kg, ip administered every 12 hrs for 3 times and measured after 48 hrs; format: functional
[8] = Toxicity in BALB/c mouse assessed as change in K+ level at 50 mg/kg, ip measured after 1 to 3 days; format: organism-based; conditions: in vivo, time 1-3 day
Staphylococcus aureus [9] = assay: Downregulation of arcC2 gene expression level in methicillin sensitive Staphylococcus aureus SA113 at 1/2 MIC by RT-qPCR analysis; format: functional
Enterococcus faecalis [10] = assay: Bactericidal activity against Enterococcus faecalis OG1RF; format: functional
[11] = system: Staphylococcus epidermidis; assay: Induction of matured biofilm eradication in Staphylococcus epidermidis SE1457 assessed as reduction in bacterial survival in biofilm at 8 times MIC incubated for 48 hrs by SYTO 9 staining based confocal fluorescence microscopic analysis; format: functional
[12] = Toxicity in BALB/c mouse assessed as change in AST level at 50 mg/kg, ip measured after 1 to 3 days; format: organism-based; conditions: in vivo, time 1-3 day
Staphylococcus aureus [13] = assay: Downregulation of arcC1 expression level in methicillin sensitive Staphylococcus aureus SA113 at 1/2 MIC incubated for 2 hrs by MS/MS analysis; format: functional
Acinetobacter baumannii = assay: Antibacterial activity against Acinetobacter baumannii; format: functional, organism-based
Staphylococcus aureus [14] = assay: Inhibition of biofilm formation in methicillin resistant Staphylococcus aureus YUSA145 at 1/2 MIC incubated for 16 hrs by SEM analysis; format: functional, organism-based
Staphylococcus aureus [15] = assay: Downregulation of pflA gene expression level in methicillin sensitive Staphylococcus aureus SA113 at 1/2 MIC by RT-qPCR analysis; format: functional
Klebsiella pneumoniae = assay: Antibacterial activity against Klebsiella pneumoniae; format: functional, organism-based
Staphylococcus aureus [16] = assay: Downregulation of arcC1 gene expression level in methicillin sensitive Staphylococcus aureus SA113 at 1/2 MIC by RT-qPCR analysis; format: functional
[17] = system: Staphylococcus epidermidis; assay: Synergistic antibacterial activity against Staphylococcus epidermidis SE1457 in presence of linezolid; format: functional, organism-based
Staphylococcus aureus [18] = assay: Antibacterial activity against methicillin resistant Staphylococcus aureus USA300 infected in BALB/c mouse wound model assessed as log reduction in wound bacterial load at 20 mg/kg, ip administered every 12 hrs for 3 times and measured after 48 hrs; format: functional
Staphylococcus aureus [19] = assay: Downregulation of pflB expression level in methicillin sensitive Staphylococcus aureus SA113 at 1/2 MIC incubated for 2 hrs by MS/MS analysis; format: functional
Staphylococcus aureus [20] = assay: Antibacterial activity against methicillin sensitive Staphylococcus aureus SA113 assessed as fold increase in MIC in presence of phosphatidylcholine by chequerboard microdilution assay; format: functional
[21] = molecular target: T1, Sensor protein kinase WalK (Staphylococcus aureus, UniProt Q9RDT3); assay: Inhibition of Staphylococcus aureus YycG expressed in Escherichia coli preincubated for 30 mins followed by ATP addition and measured after 30 mins by kinase-Glo luminescent assay
T1 sequence (Q9RDT3 whole entry): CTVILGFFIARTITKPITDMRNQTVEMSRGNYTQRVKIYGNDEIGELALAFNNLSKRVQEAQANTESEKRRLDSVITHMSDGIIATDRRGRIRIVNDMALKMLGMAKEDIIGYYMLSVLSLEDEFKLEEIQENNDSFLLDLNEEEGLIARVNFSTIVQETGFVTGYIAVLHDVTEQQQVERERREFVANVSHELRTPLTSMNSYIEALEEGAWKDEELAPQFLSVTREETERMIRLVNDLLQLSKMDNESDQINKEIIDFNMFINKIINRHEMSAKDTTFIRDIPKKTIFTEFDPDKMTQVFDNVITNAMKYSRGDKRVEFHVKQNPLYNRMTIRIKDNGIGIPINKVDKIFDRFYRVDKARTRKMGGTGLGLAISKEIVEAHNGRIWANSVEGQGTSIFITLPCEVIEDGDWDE

Staphylococcus aureus [22] = assay: Antibacterial activity against methicillin sensitive Staphylococcus aureus SA113 assessed as fold increase in MIC in presence of phosphatidyl glycerol by chequerboard microdilution assay; format: functional
Staphylococcus aureus [23] = assay: Inhibition of bacterial growth in methicillin resistant Staphylococcus aureus USA300 at 1/2 MIC concentration measured upto 16 hrs; format: functional, organism-based
[24] = system: Staphylococcus epidermidis; assay: Induction of matured biofilm eradication in Staphylococcus epidermidis SE1457 assessed as log reduction in bacterial count in biofilm at 8 times MIC incubated for 48 hrs in presence of daptomycin by agar plate method; format: functional
[25] = Toxicity in BALB/c mouse assessed as apparent tissue damage at 50 mg/kg, ip measured after 1 to 3 days; format: organism-based; conditions: in vivo, time 1-3 day
[26] = Binding affinity to biotin-labeled cardiolipin (unknown origin) by biolayer interferometry
Cell membrane = assay: Induction of cell membrane disruption in methicillin sensitive Staphylococcus aureus SA113 at 4 times MIC incubated for 2 hrs by TEM analysis; format: cell membranes
Staphylococcus aureus [27] = assay: Downregulation of pflB gene expression level in methicillin sensitive Staphylococcus aureus SA113 at 1/2 MIC by RT-qPCR analysis; format: functional
Staphylococcus aureus [28] = assay: Downregulation of intracellular ATP level in methicillin sensitive Staphylococcus aureus SA113 at 1 to 4 times MIC incubated for 30 mins; format: functional, cell-based
[29] = system: Staphylococcus epidermidis; assay: Antibacterial activity against Staphylococcus epidermidis SE1457 in presence of palmitic acid; format: functional, organism-based
Staphylococcus aureus [30] = assay: Synergistic antibacterial activity against methicillin resistant Staphylococcus aureus USA300 in presence of linezolid; format: functional, organism-based
Staphylococcus aureus [31] = assay: Synergistic antibacterial activity against methicillin resistant Staphylococcus aureus USA300 in presence of vancomycin; format: functional, organism-based
Staphylococcus aureus [32] = assay: Inhibition of bacterial growth in methicillin sensitive Staphylococcus aureus SA113 at 1/2 MIC concentration measured upto 16 hrs; format: functional, organism-based
[33] = system: Staphylococcus epidermidis; assay: Antibacterial activity against Staphylococcus epidermidis SE1457 in presence of oleic acid; format: functional, organism-based
Staphylococcus aureus [34] = assay: Antibacterial activity against methicillin resistant Staphylococcus aureus […] infected in BALB/c mouse wound model assessed as log reduction in wound bacterial load at 20 mg/kg, ip administered every 12 hrs for 3 times and measured after 48 hrs in presence of DAP; format: functional
Staphylococcus aureus [35] = assay: Antibacterial activity against methicillin resistant Staphylococcus aureus USA300 by broth microdilution method; format: functional
Enterococcus faecalis [36] = assay: Antibacterial activity against Enterococcus faecalis OG1RF by broth microdilution method; format: functional

In the case of `O=C(C1=C(O)C(=O)N(c2nnc(SCc3ccccc3Cl)s2)C1c1ccccc1O)c1cc2ccccc2o1` (stereo not given), the “fold change (FC)” value (Staphylococcus aureus [1]) is reported as 16, the CC50 at 24 h [2] is reported as over 100 µM and the “fold change (FC)” value (Staphylococcus aureus [3]) is reported as 16. For the same compound, the “fractional inhibitory concentration index (FICI)” value [4] was “<=0.5”, the HC50 at 1 h [5] was over 200 µM and the “fractional inhibitory concentration index (FICI)” value (Staphylococcus aureus [6]) was “<=0.5”. The “log(activity)” value (Staphylococcus aureus [7]) was 2, the Activity [8] was “Non-Toxic” and the Activity (Staphylococcus aureus [9]) was “Active”. For the same compound, the MBC (Enterococcus faecalis [10]) was 100 µM (≈ 57.6 µg/mL), the Activity [11] was under 50% and the Activity [12] was “Non-Toxic”. For the same compound, the Activity (Staphylococcus aureus [13]) was “Active”, the Activity (Acinetobacter baumannii) was “Active” and the inhibition (Staphylococcus aureus [14]) was “Active”. The Activity (Staphylococcus aureus [15]) was “Active”, the Activity (Klebsiella pneumoniae) was “Active” and the Activity (Staphylococcus aureus [16]) was “Active”. For the same compound, the Activity [17] was “inactive”, the “log(activity)” value (Staphylococcus aureus [18]) was 1 and the Activity (Staphylococcus aureus [19]) was “Active”. For the same compound, the “fold change (FC)” value (Staphylococcus aureus [20]) was 16, the IC50 [21] was 19.5 µM and the “fold change (FC)” value (Staphylococcus aureus [22]) was 16. The “growth inhibition (GI)” value (Staphylococcus aureus [23]) was “Active”, the “log(activity)” value [24] was 3 and the Activity [25] was “Non-Toxic”. The Kd [26] was 44.1 µM, the Activity (Cell membrane) was “Active” and the Activity (Staphylococcus aureus [27]) was “Active”. For the same compound, the Activity (Staphylococcus aureus [28]) was “Active”, the Activity [29] was “inactive” and the Activity (Staphylococcus aureus [30]) was “inactive”. The Activity (Staphylococcus aureus [31]) was “inactive”, the “growth inhibition (GI)” value (Staphylococcus aureus [32]) was “Active” and the Activity [33] was “inactive”. For the same compound, the “log(activity)” value (Staphylococcus aureus [34]) was 3.5, the MIC (Staphylococcus aureus [35]) was 12.5 µM (≈ 7.2 µg/mL) and the MIC50 (Enterococcus faecalis [36]) was at least 50 µM. For the same compound, the MIC90 (Enterococcus faecalis [36]) was at least 50 µM.
